Experimental findings from PubChem BioAssay AID248 (DTP/NCI, 2004) are described below.

Several values for one entry are separate records, joined by “and”; a condition that tells them apart may be missing. Identical values can stand only once. Inconclusive results and toxic doses are left out.

The test system of the assay is L1210 leukemia ip in BDF1 mice, survival T/C. Description: NCI In Vivo Anticancer Drug Screen. Data for tumor model L1210 Leukemia (intraperitoneal) in B6D2F1 (BDF1) mice. The note with it: endpoint: mean survival time, higher = longer survival. In a few lines:
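Transplantable tumor model; survival measured in treated vs vehicle control mice. Value = treated/control.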

Where [1] appears, read: dose: 100.0 mg/kg/injection, schedule: Q01DX009 (ip), vehicle: Klucel (hydroxypropylcellulose) (HPC).
Setting [2] is: dose: 100.0 mg/kg/injection, schedule: Q04DX003 (ip), vehicle: Klucel (hydroxypropylcellulose) (HPC).
[3] abbreviates: dose: 200.0 mg/kg/injection, schedule: Q01DX009 (ip), vehicle: Klucel (hydroxypropylcellulose) (HPC).
Where [4] appears, read: dose: 200.0 mg/kg/injection, schedule: Q04DX003 (ip), vehicle: Klucel (hydroxypropylcellulose) (HPC).
Setting [5] is: dose: 400.0 mg/kg/injection, schedule: Q01DX009 (ip), vehicle: Klucel (hydroxypropylcellulose) (HPC).
The mark [6] stands for this setting: dose: 400.0 mg/kg/injection, schedule: Q04DX003 (ip), vehicle: Klucel (hydroxypropylcellulose) (HPC).
[7] abbreviates: dose: 100.0 mg/kg/injection, schedule: Q01DX001 (ip), vehicle: saline with Tween-80.
Setting [8] is: dose: 100.0 mg/kg/injection, schedule: Q01DX009 (ip), vehicle: saline with Tween-80.
The mark [9] stands for this setting: dose: 100.0 mg/kg/injection, schedule: Q04DX002 (ip), vehicle: saline with Tween-80.
Where [10] appears, read: dose: 100.0 mg/kg/injection, schedule: Q04DX003 (ip), vehicle: saline with Tween-80.
Setting [11] is: dose: 200.0 mg/kg/injection, schedule: Q01DX009 (ip), vehicle: saline with Tween-80.
[12] abbreviates: dose: 200.0 mg/kg/injection, schedule: Q04DX002 (ip), vehicle: saline with Tween-80.
Setting [13] is: dose: 200.0 mg/kg/injection, schedule: Q04DX003 (ip), vehicle: saline with Tween-80.
Where [14] appears, read: dose: 400.0 mg/kg/injection, schedule: Q01DX001 (ip), vehicle: saline with Tween-80.
[15] abbreviates: dose: 400.0 mg/kg/injection, schedule: Q04DX002 (ip), vehicle: saline with Tween-80.
[16] abbreviates: dose: 400.0 mg/kg/injection, schedule: Q04DX003 (ip), vehicle: saline with Tween-80.
Where [17] appears, read: dose: 50.0 mg/kg/injection, schedule: Q01DX009 (ip), vehicle: Klucel (hydroxypropylcellulose) (HPC).

Turning to `S=C(Nc1ccc(C2=NCCN2)cc1)c1ccc(C(=S)Nc2ccc(C3=NCCN3)cc2)cc1`, the T/C is, setting by setting: (dose: 1.0 mg/kg/injection, schedule: Q01DX Z (ip), vehicle: saline) 108 % of control; (dose: 2.0 mg/kg/injection, schedule: Q01DX Z (ip), vehicle: saline) 108 % of control; (dose: 4.0 mg/kg/injection, schedule: Q01DX Z (ip), vehicle: saline) 124 % of control; (dose: 15.0 mg/kg/injection, schedule: Q01DX Z (ip), vehicle: carboxymethylcellulose (CMC)) 219 % of control; (dose: 30.0 mg/kg/injection, schedule: Q01DX Z (ip), vehicle: carboxymethylcellulose (CMC)) 182 % of control; (dose: 30.0 mg/kg/injection, schedule: Q01DX Z (oral), vehicle: saline) 103 % of control. The T/C is 171 % of control (dose: 60.0 mg/kg/injection, schedule: Q01DX Z (ip), vehicle: carboxymethylcellulose (CMC)); 101 % of control (dose: 60.0 mg/kg/injection, schedule: Q01DX Z (oral), vehicle: saline); 98 % of control (dose: 120.0 mg/kg/injection, schedule: Q01DX Z (oral), vehicle: saline); 101 % of control (dose: 240.0 mg/kg/injection, schedule: Q01DX Z (oral), vehicle: saline); 101 % of control (dose: 480.0 mg/kg/injection, schedule: Q01DX Z (oral), vehicle: saline); 101 % of control (dose: 960.0 mg/kg/injection, schedule: Q01DX Z (oral), vehicle: saline).

Consider `COC(=O)CNc1ccc(S(=O)(=O)c2ccc(N)cc2)cc1`, for which the T/C under setting [1] was 107 % of control; the T/C under setting [2] is 97 % of control; the T/C under setting [3] was 92 % of control; the T/C under setting [4] was 101 % of control; the T/C under setting [5] is 88 % of control; the T/C under setting [6] was 97 % of control.

For `COc1cc([N+](=O)[O-])ccc1NC(=O)N(C)Cc1ccccc1`, the T/C (dose: 50.0 mg/kg/injection, schedule: Q01DX001 (ip), vehicle: saline with Tween-80) is 95 % of control; the T/C under setting [7] was 93 % of control; the T/C under setting [8] is 96 % of control; the T/C under setting [9] was 92 % of control and 93 % of control; the T/C under setting [10] is 116 % of control; the T/C under setting [11] is 98 % of control. Further, the T/C is 94 % of control and 102 % of control under setting [12]; 98 % of control under setting [13]; 87 % of control and 88 % of control under setting [14]; 94 % of control (dose: 400.0 mg/kg/injection, schedule: Q01DX009 (ip), vehicle: saline with Tween-80); 93 % of control and 101 % of control under setting [15]; 101 % of control under setting [16].

For the molecule `O=C(O)C[As](=O)(O)O`, the T/C was 90 % of control (dose: 30.0 mg/kg/injection, schedule: Q01DX009 (ip), vehicle: saline) and 97 % of control (dose: 60.0 mg/kg/injection, schedule: Q01DX009 (ip), vehicle: saline).

Take `CCN(CC)Cc1ncccc1O`: the T/C was 106 % of control under setting [17]; 106 % of control under setting [1]; 105 % of control under setting [2]; 93 % of control under setting [3]; 104 % of control under setting [4].

`C=C1CC(c2ccc(S(=O)(=O)N(CC)CC)cc2)OC1=O` (stereo not drawn): the T/C is, setting by setting: (dose: 25.0 mg/kg/injection, schedule: Q01DX005 (ip), vehicle: Klucel (hydroxypropylcellulose) (HPC)) 89 % of control; (dose: 25.0 mg/kg/injection, schedule: Q01DX009 (ip), vehicle: Klucel (hydroxypropylcellulose) (HPC)) 98 % of control; (dose: 25.0 mg/kg/injection, schedule: Q04DX002 (ip), vehicle: Klucel (hydroxypropylcellulose) (HPC)) 96 % of control; (dose: 50.0 mg/kg/injection, schedule: Q01DX005 (ip), vehicle: Klucel (hydroxypropylcellulose) (HPC)) 92 % of control; under setting [17], 94 % of control; (dose: 50.0 mg/kg/injection, schedule: Q04DX002 (ip), vehicle: Klucel (hydroxypropylcellulose) (HPC)) 96 % of control. Moreover, the T/C is 96 % of control (dose: 100.0 mg/kg/injection, schedule: Q01DX005 (ip), vehicle: Klucel (hydroxypropylcellulose) (HPC)); 98 % of control under setting [1]; 96 % of control (dose: 100.0 mg/kg/injection, schedule: Q04DX002 (ip), vehicle: Klucel (hydroxypropylcellulose) (HPC)).

`CC(C)(Oc1ccc(Cl)cc1)C(=O)NC(N)=O`: the T/C is, setting by setting: (dose: 50.0 mg/kg/injection, schedule: Q01DX009 (ip), vehicle: saline) 95 % of control; (dose: 100.0 mg/kg/injection, schedule: Q01DX009 (ip), vehicle: saline) 113 % of control; (dose: 200.0 mg/kg/injection, schedule: Q01DX009 (ip), vehicle: saline) 103 % of control.

As to `Cc1ccc(C(=O)N2CCCCC2)c[n+]1C`, the T/C runs as follows: (dose: 100.0 mg/kg/injection, schedule: Q01DX001 (ip), vehicle: saline) 104 % of control; (dose: 200.0 mg/kg/injection, schedule: Q01DX001 (ip), vehicle: saline) 100 % of control; (dose: 400.0 mg/kg/injection, schedule: Q01DX001 (ip), vehicle: saline) 105 % of control.

As for `CC(C)Nc1ccc(C(=O)O)cc1`, the T/C by setting is: (dose: 100.0 mg/kg/injection, schedule: Q01DX001 (ip), vehicle: Klucel (hydroxypropylcellulose) (HPC)) 100 % of control; under setting [2], 98 % of control; (dose: 200.0 mg/kg/injection, schedule: Q01DX001 (ip), vehicle: Klucel (hydroxypropylcellulose) (HPC)) 91 % of control; under setting [4], 100 % of control; (dose: 400.0 mg/kg/injection, schedule: Q01DX001 (ip), vehicle: Klucel (hydroxypropylcellulose) (HPC)) 102 % of control; under setting [6], 100 % of control.

On to `CCOC(=O)c1ccc(NC(=S)NC(Cc2ccccc2)c2ccccc2)cc1` (stereo not drawn), for which the T/C was 98 % of control under setting [9], 95 % of control under setting [12] and 95 % of control under setting [15].

In the case of `CCOc1ccc(Br)cc1`, the T/C runs as follows: under setting [7], 91 % of control; under setting [8], 95 % of control and 105 % of control; under setting [9], 97 % of control and 101 % of control; under setting [10], 105 % of control; (dose: 200.0 mg/kg/injection, schedule: Q01DX001 (ip), vehicle: saline with Tween-80) 87 % of control; under setting [11], 105 % of control and 92 % of control. Besides, the T/C was 119 % of control and 92 % of control under setting [12]; 94 % of control under setting [13]; 89 % of control under setting [14]; 99 % of control and 91 % of control under setting [15]; 101 % of control under setting [16].

With `C[N+](C)(C)/N=C/c1ccc(Cl)cc1`, the T/C by setting is: (dose: 5.0 mg/kg/injection, schedule: Q01DX001 (ip), vehicle: carboxymethylcellulose (CMC)) 98 % of control; (dose: 10.0 mg/kg/injection, schedule: Q01DX001 (ip), vehicle: carboxymethylcellulose (CMC)) 104 % of control; (dose: 20.0 mg/kg/injection, schedule: Q01DX001 (ip), vehicle: carboxymethylcellulose (CMC)) 95 % of control; (dose: 40.0 mg/kg/injection, schedule: Q01DX001 (ip), vehicle: carboxymethylcellulose (CMC)) 104 % of control.

Take `CC(c1ccccc1)[As](C)(=O)O` (stereo not drawn): the T/C is 102 % of control (dose: 25.0 mg/kg/injection, schedule: Q04DX003 (ip), vehicle: saline); 100 % of control (dose: 50.0 mg/kg/injection, schedule: Q04DX003 (ip), vehicle: saline); 122 % of control (dose: 100.0 mg/kg/injection, schedule: Q04DX003 (ip), vehicle: saline).

In the case of `CCC(=O)/C=C/c1ccc(Cl)cc1`, the T/C is 98 % of control under setting [1]; 98 % of control under setting [2]; 97 % of control under setting [3]; 104 % of control under setting [4]; 97 % of control under setting [5]; 102 % of control under setting [6].

With `CCCCCCCCCCCCCCCCNc1cccc2ccccc12`, the T/C under setting [2] was 90 % of control, the T/C under setting [4] is 90 % of control and the T/C under setting [6] is 91 % of control.
